In patent publication US20070128217A1 (priority 2003, published 2007):

Key:
[1] = system: antibodies in sera from SARS patients (sera 1a, 1b, 2, 6, 37, 62, London, SARS-yellow, SARS-green); assay type: binding, human; design: Binding of serum 6 to linear peptides of protein X1 of SARS-CoV Urbani / Binding of serum 37 to linear peptides of protein X1 of SARS-CoV Urbani / Binding of serum 6 to looped/cyclic peptide (PEPSCAN-ELISA) / Binding of serum 37 to looped/cyclic peptide (PEPSCAN-ELISA) / Binding of serum 37 to looped/cyclic peptides of protein X1 of SARS-CoV Urbani / Binding of serum 6 to linear peptides of protein X2 / Binding of serum 37 to linear peptides of protein X2 / Binding of serum 37 to looped/cyclic peptides of protein X2 of SARS-CoV Urbani / Binding of serum 6 to linear peptides of protein M of SARS-CoV Urbani / Binding of serum 37 to linear peptides of protein M of SARS-CoV Urbani / Binding of serum 6 to looped/cyclic peptides of protein M of SARS-CoV Urbani / Binding of serum 37 to looped/cyclic peptides of protein M of SARS-CoV Urbani / Binding of serum 6 to linear peptides of protein X3 of SARS-CoV Urbani / Binding of serum 37 to linear peptides of protein X3 of SARS-CoV Urbani / Binding of serum 37 to looped/cyclic peptides of protein X3 of SARS-CoV Urbani / Binding of serum 6 to linear peptides of protein X4 of SARS-CoV Urbani / Binding of serum 37 to linear peptides of protein X4 of SARS-CoV Urbani / Binding of serum 37 to looped/cyclic peptides of protein X4 of SARS-CoV Urbani / Binding of serum 6 to linear peptides of protein X5 of SARS-CoV Urbani / Binding of serum 37 to linear peptides of protein X5 of SARS-CoV Urbani / Binding of serum 37 to looped/cyclic peptides of protein X5 of SARS-CoV Urbani / Binding of serum 6 to linear peptides of protein N of SARS-CoV Urbani / Binding of serum 37 to linear peptides of protein N of SARS-CoV Urbani / Binding of serum 6 to linear peptide (PEPSCAN-ELISA) / Binding of serum 1a to looped/cyclic peptides of protein N of SARS-CoV Urbani / Binding of serum 1b to looped/cyclic peptides of protein N of SARS-CoV Urbani / Binding of serum 2 to looped/cyclic peptides of protein N of SARS-CoV Urbani / Binding of serum 6 to looped/cyclic peptides of protein N of SARS-CoV Urbani / Binding of serum 37 to looped/cyclic peptides of protein N of SARS-CoV Urbani / Binding of serum 62 to looped/cyclic peptides of protein N of SARS-CoV Urbani / Binding of serum London to looped/cyclic peptides of protein N of SARS-CoV Urbani / Binding of serum SARS-green to looped/cyclic peptides of protein N of SARS-CoV Urbani: unit not given here
[2] = system: control sera (pooled serum of ten healthy LUMC hospital workers; commercial negative donor pooled serum from the Dutch bloodbank); assay type: binding, human; design: Binding of Control serum LUMC to linear peptides / Binding of Control serum Blood-bank to linear peptides / Binding of Control serum LUMC to looped peptides / Binding of Control Serum Blood-Bank to Looped peptides / Binding of Control serum LUMC to linear peptides of the protein M of SARS-CoV Urbani / Binding of Control serum Blood-bank to linear peptides of the protein M of SARS-CoV Urbani / Binding of Control serum LUMC to looped peptides of the protein M of SARS-CoV Urbani / Binding of Control Serum Blood-Bank to Looped peptides of the protein M of SARS-CoV Urbani: unit not given here
[3] = system: rabbit serum obtained by immunizing a rabbit with the SARS-CoV strain Frankfurt 1; assay type: binding; design: Binding of a rabbit serum to linear peptides / Binding of a rabbit serum to looped peptides / Rabbit serum linear peptides / Rabbit serum looped peptides / Binding of a rabbit serum to linear peptides of protein N of SARS-CoV Urbani (Rabbit serum linear peptides) / Binding of a rabbit serum to looped/cyclic peptides of protein N of SARS-CoV Urbani (Rabbit serum looped peptides): unit not given here

Question: With VFTSCELYHYQECVR as the sequence, how does the “Binding of serum 1a to linear peptides of protein X4 of SARS-CoV Urbani” value [1] read?
Answer: 0.8

Question: And the “Binding of serum 1a to looped/cyclic peptides of protein X4 of SARS-CoV Urbani” value [1]?
Answer: 0.8

Question: And the “Binding of serum 1b to linear peptides of protein X4 of SARS-CoV Urbani” value [1]?
Answer: 0.6

Question: And the “Binding of serum 1b to looped/cyclic peptides of protein X4 of SARS-CoV Urbani” value [1]?
Answer: 0.7

Question: What about the “Binding of serum 2 to linear peptides of protein X4 of SARS-CoV Urbani” value [1] of the same sequence?
Answer: 0.4

Question: What about the “Binding of serum 2 to looped/cyclic peptides of protein X4 of SARS-CoV Urbani” value [1] of the same sequence?
Answer: 0.7

Question: And the “Binding of serum 6 to linear peptides of protein X4 of SARS-CoV Urbani” value [1]?
Answer: 0.7

Question: What about the “Binding of serum 6 to looped/cyclic peptides of protein X4 of SARS-CoV Urbani” value [1] of the same sequence?
Answer: 0.7

Question: And the “Binding of serum 37 to linear peptides of protein X4 of SARS-CoV Urbani” value [1]?
Answer: 0.8

Question: What about the “Binding of serum 37 to looped/cyclic peptides of protein X4 of SARS-CoV Urbani” value [1] of the same sequence?
Answer: 0.8

Question: And the “Binding of serum 62 to linear peptides of protein X4 of SARS-CoV Urbani” value [1]?
Answer: 0.8

Question: What about the “Binding of serum 62 to looped/cyclic peptides of protein X4 of SARS-CoV Urbani” value [1] of the same sequence?
Answer: 0.7

Question: What about the “Binding of serum London to linear peptides of protein X4 of SARS-CoV Urbani” value [1] of the same sequence?
Answer: 0.7

Question: And the “Binding of serum London to looped/cyclic peptides of protein X4 of SARS-CoV Urbani” value [1]?
Answer: 0.3

Question: And the “Binding of serum SARS-green to linear peptides of protein X4 of SARS-CoV Urbani” value [1]?
Answer: 0.7

Question: What about the “Binding of serum SARS-green to looped/cyclic peptides of protein X4 of SARS-CoV Urbani” value [1] of the same sequence?
Answer: 0.7

Question: What about the “Binding of serum SARS-yellow to linear peptides of protein X4 of SARS-CoV Urbani” value [1] of the same sequence?
Answer: 0.3

Question: And the “Binding of serum SARS-yellow to looped/cyclic peptides of protein X4 of SARS-CoV Urbani” value [1]?
Answer: 0.5

Question: What about the “Binding of Control Serum Blood-Bank to Looped peptides” value [2] of the same sequence?
Answer: 0.7

Question: What about the “Binding of Control serum Blood-bank to linear peptides” value [2] of the same sequence?
Answer: 0.7

Question: And the “Binding of Control serum LUMC to linear peptides” value [2]?
Answer: 0.5

Question: And the “Binding of Control serum LUMC to looped peptides” value [2]?
Answer: 0.9

Question: And the “Rabbit serum linear peptides” value [3]?
Answer: 0.5

Question: And the “Rabbit serum looped peptides” value [3]?
Answer: 0.5

Question: For VGLMWLSYFVASFRL, which “Binding of serum 1a to linear peptides of protein M of SARS-CoV Urbani” value [1] is on record?
Answer: 0.6

Question: And the “Binding of serum 1a to looped/cyclic peptides of protein M of SARS-CoV Urbani” value [1]?
Answer: 0.6

Question: And the “Binding of serum 1b to linear peptides of protein M of SARS-CoV Urbani” value [1]?
Answer: 0.5

Question: What about the “Binding of serum 1b to looped/cyclic peptides of protein M of SARS-CoV Urbani” value [1] of the same sequence?
Answer: 0.3

Question: What about the “Binding of serum 2 to linear peptides of protein M of SARS-CoV Urbani” value [1] of the same sequence?
Answer: 0.4

Question: And the “Binding of serum 2 to looped/cyclic peptides of protein M of SARS-CoV Urbani” value [1]?
Answer: 0.5

Question: And the “Binding of serum 6 to linear peptides of protein M of SARS-CoV Urbani” value [1]?
Answer: 0.5

Question: And the “Binding of serum 6 to looped/cyclic peptides of protein M of SARS-CoV Urbani” value [1]?
Answer: 0.5

Question: And the “Binding of serum 37 to linear peptides of protein M of SARS-CoV Urbani” value [1]?
Answer: 0.4

Question: And the “Binding of serum 37 to looped/cyclic peptides of protein M of SARS-CoV Urbani” value [1]?
Answer: 0.6

Question: What about the “Binding of serum 62 to linear peptides of protein M of SARS-CoV Urbani” value [1] of the same sequence?
Answer: 0.4

Question: And the “Binding of serum 62 to looped/cyclic peptides of protein M of SARS-CoV Urbani” value [1]?
Answer: 0.5

Question: And the “Binding of serum London to linear peptides of protein M of SARS-CoV Urbani” value [1]?
Answer: 0.5

Question: And the “Binding of serum London to looped/cyclic peptides of protein M of SARS-CoV Urbani” value [1]?
Answer: 0.2

Question: And the “Binding of serum SARS-green to linear peptides of protein M of SARS-CoV Urbani” value [1]?
Answer: 0.4

Question: What about the “Binding of serum SARS-green to looped/cyclic peptides of protein M of SARS-CoV Urbani” value [1] of the same sequence?
Answer: 0.2

Question: What about the “Binding of serum SARS-yellow to linear peptides of protein M of SARS-CoV Urbani” value [1] of the same sequence?
Answer: 0.1

Question: And the “Binding of serum SARS-yellow to looped/cyclic peptides of protein M of SARS-CoV Urbani” value [1]?
Answer: 0.8

Question: What about the “Binding of Control Serum Blood-Bank to Looped peptides of the protein M of SARS-CoV Urbani” value [2] of the same sequence?
Answer: 0.6

Question: And the “Binding of Control serum Blood-bank to linear peptides of the protein M of SARS-CoV Urbani” value [2]?
Answer: 0.6

Question: What about the “Binding of Control serum LUMC to linear peptides of the protein M of SARS-CoV Urbani” value [2] of the same sequence?
Answer: 0.5

Question: And the “Binding of Control serum LUMC to looped peptides of the protein M of SARS-CoV Urbani” value [2]?
Answer: 0.6

Question: And the “Rabbit serum linear peptides” value [3]?
Answer: 0.0

Question: What about the “Rabbit serum looped peptides” value [3] of the same sequence?
Answer: 0.4

Question: How did the “Binding of serum 1a to linear peptides of protein M of SARS-CoV Urbani” value [1] turn out when VGTDSGFAAYNRYRI was run?
Answer: 0.8

Question: What about the “Binding of serum 1a to looped/cyclic peptides of protein M of SARS-CoV Urbani” value [1] of the same sequence?
Answer: 0.7

Question: What about the “Binding of serum 1b to linear peptides of protein M of SARS-CoV Urbani” value [1] of the same sequence?
Answer: 0.4

Question: What about the “Binding of serum 1b to looped/cyclic peptides of protein M of SARS-CoV Urbani” value [1] of the same sequence?
Answer: 0.4

Question: And the “Binding of serum 2 to linear peptides of protein M of SARS-CoV Urbani” value [1]?
Answer: 0.4

Question: And the “Binding of serum 2 to looped/cyclic peptides of protein M of SARS-CoV Urbani” value [1]?
Answer: 0.7

Question: And the “Binding of serum 6 to linear peptides of protein M of SARS-CoV Urbani” value [1]?
Answer: 0.3

Question: What about the “Binding of serum 6 to looped/cyclic peptides of protein M of SARS-CoV Urbani” value [1] of the same sequence?
Answer: 0.6

Question: And the “Binding of serum 37 to linear peptides of protein M of SARS-CoV Urbani” value [1]?
Answer: 0.6

Question: And the “Binding of serum 37 to looped/cyclic peptides of protein M of SARS-CoV Urbani” value [1]?
Answer: 0.7

Question: And the “Binding of serum 62 to linear peptides of protein M of SARS-CoV Urbani” value [1]?
Answer: 0.7

Question: And the “Binding of serum 62 to looped/cyclic peptides of protein M of SARS-CoV Urbani” value [1]?
Answer: 0.8

Question: And the “Binding of serum London to linear peptides of protein M of SARS-CoV Urbani” value [1]?
Answer: 0.3

Question: And the “Binding of serum London to looped/cyclic peptides of protein M of SARS-CoV Urbani” value [1]?
Answer: 0.2

Question: What about the “Binding of serum SARS-green to linear peptides of protein M of SARS-CoV Urbani” value [1] of the same sequence?
Answer: 0.3

Question: What about the “Binding of serum SARS-green to looped/cyclic peptides of protein M of SARS-CoV Urbani” value [1] of the same sequence?
Answer: 0.4

Question: And the “Binding of serum SARS-yellow to linear peptides of protein M of SARS-CoV Urbani” value [1]?
Answer: 0.1

Question: And the “Binding of serum SARS-yellow to looped/cyclic peptides of protein M of SARS-CoV Urbani” value [1]?
Answer: 0.5

Question: And the “Binding of Control Serum Blood-Bank to Looped peptides of the protein M of SARS-CoV Urbani” value [2]?
Answer: 0.5

Question: And the “Binding of Control serum Blood-bank to linear peptides of the protein M of SARS-CoV Urbani” value [2]?
Answer: 0.7

Question: What about the “Binding of Control serum LUMC to linear peptides of the protein M of SARS-CoV Urbani” value [2] of the same sequence?
Answer: 0.3

Question: What about the “Binding of Control serum LUMC to looped peptides of the protein M of SARS-CoV Urbani” value [2] of the same sequence?
Answer: 0.6

Question: What about the “Rabbit serum linear peptides” value [3] of the same sequence?
Answer: 0.4

Question: What about the “Rabbit serum looped peptides” value [3] of the same sequence?
Answer: 0.0
